Consider two compounds from patent US12624398B2, “Use of long non-coding RNAs in medulloblastoma” (THE JOHNS HOPKINS UNIVERSITY, priority 2019, dated 2026).

l = locked nucleic acid (LNA); d = 2'-deoxy (DNA)

For data set [1], the system named is lnc-HLX-2-7. Kind of data set: qRT-PCR of lnc-HLX-2-7 expression in MB cells. The data set is classed as cell-based, human. Here is the method: (§1) Cell culture. Cell lines were authenticated using single tandem repeat profiling. D425 Med cells were cultured in DMEM/F12 with 10% serum and 1% glutamate/penicillin/streptomycin. MED211 cells were cultured in medium composed of 30% Ham's F12/70% DMEM, 1% antibiotic antimycotic, […] B27 supplement, 5 μg/mL heparin, 20 ng/mL EGF, and 20 ng/mL FGF2. DAOY cells were cultured in DMEM with 10% serum and 1% glutamate/penicillin/streptomycin. All cells were grown in a humidified incubator at 37° C., 5% CO2. For blocking of BET bromodomain protein in D425 Med and MED211 cells, JQ1 (SML1524-5MG, Sigma Aldrich, St. Louis, MO) was added, and the medium was changed every other day.
(§2) Quantitative real-time PCR (qRT-PCR). Total RNA was purified using the Direct-zol RNA Miniprep kit (Zymo Research, Irvine, CA). To obtain RNA from xenografts, tumor tissues were pulverized and then used for purification.
(§3) ASO-lnc-HLX2-7. Antisense oligonucleotides (ASOs) were designed using the Integrated DNA Technologies (IDT) Antisense Design Tool (IDT, Coralville, IA). ASO knockdowns were performed with 50 nM (final concentration) locked nucleic acid (LNA) GapmeRs transfected with Lipofectamine 3000 (Thermo Fisher Scientific, Waltham, MA). All ASOs were modified with phosphorothioate (PS) linkages. The following ASOs were used: ASO targeting lnc-HLX-2-7 (ASO-lnc-HLX-2-7): +T*+G*+A*G*A*G*A*T*T*A*A*T*C*T*A*G*A*T*+T*+G*+C (SEQ ID NO:240) and control ASO targeting luciferase (ASO-Luc): +T*+C*+G*A*A*G*T*A*C*T*C*A*G*C*G*T*A*A*+G*+T*+T (SEQ ID NO:241). The PS linkages are indicated with * and LNA-modified oligonucleotides are indicated with +.
(§4) siRNA-mediated knockdown of HLX, MYC, and MY CN. siRNAs targeting HLX (catalog no. 4427037, ID: s6639) and MYC (catalog no. 4427037, ID: s9129) were purchased from Thermo Fisher Scientific. siRNAs were transfected at 20 nM for 48 h using Lipofectamine RNAiMAX (Thermo Fisher Scientific). The efficiency was determined by qRT-PCR.
In general terms: In qPCR the cycle at which signal appears reflects the starting amount.

A further data set relates to MYC. Kind of data set: qRT-PCR of MYC expression in MB cells. The settings on record: JQ1 100 or 300 nM, relative to DMSO-treated cells. The data set is classed as cell-based, human. Here is the method:
as §1, §2, §4

Data set [2] concerns D425 Med cells. Kind of data set: Cell proliferation, living cells counted by trypan blue staining. The data set is classed as cell-based, human. The method, then:
as §1
(§5) Cell proliferation, apoptosis, and 3D colony formation assays. Cells were plated in 96-well plates at 5×10^3 cells per well in triplicate. After 72 hours of ASO or siRNA transfection, living cells were counted by trypan blue staining. Apoptotic cells were analyzed using a GloMax luminometer (Promega, Fitchburg, WI) with conditions optimized for the Caspase-Glo 3/7 Assay. For the 3D colony formation assay, cells were seeded in 24-well plates at a density of 1×10^2 cells/well and were stained with crystal violet solution approximately 14 days later. Colony number was determined using the EVE cell counter (Nano Entek, Pleasanton, CA), and staining intensity was analyzed using ImageJ software.

Data set [3] relates to MED211 cells. The description is as above. It is filed as cell-based, human. Here is the method:
as §1, §5

The test system of data set [4] is lnc-HLX-2-7. Description: qPCR of lnc-HLX-2-7 and MYC expression in JQ1-treated mouse xenografts. The conditions noted are these: JQ1 50 mg/kg intraperitoneal on alternating days for 14 days vs DMSO. The data set is classed as in vivo, NOD-SCID mice.
Text: as §2
Medulloblastoma xenografts (intracranial). All mouse studies were approved and performed in accordance with the policies and regulations of the Animal Care and Use Committee of Johns Hopkins University. Intracranial MB xenografts were established by injecting D425 Med cells, MED211 cells, D425 Med cells with lnc-HLX-2-7 deleted, and MED211 cells with lnc-HLX-2-7 deleted into the cerebellums of NOD-SCID mice (Jackson Laboratory, Bar Harbor, ME). Cerebellar coordinates were −2 mm from lambda, +1 mm laterally, and 1.5 mm deep. Seven days after injection, mice were administered JQ1 (50 mg/kg) or vehicle alone (DMSO) on alternating days via intraperitoneal injection for 14 days. Tumor growth was evaluated by weekly bioluminescence imaging using an in vivo spectral imaging system (IVIS Lumina II, Xenogen, Alameda, CA).

In data set [5] the test system is various types of cancer including MB. The conditions noted are these: by inhibiting BRD4-mediated regulation of MYC; previous studies; cited from earlier work.
For another data set, the system named is HLX. Kind of data set: qRT-PCR of HLX expression in MB cells. It is filed as cell-based, human. The conditions noted are these: ASO 50 nM. The method, then: as §2, §3, §4
Data set [6] relates to D425 Med cells. Kind of data set: Apoptosis, Caspase-Glo 3/7 Assay. The data set is classed as cell-based, human. The conditions noted are these: ASO 50 nM, p<0.01. The method, then: as §5
Data set [7] concerns MED211 cells. Kind of data set: Apoptosis, Caspase-Glo 3/7 Assay. The settings on record: ASO 50 nM, p<0.01. The data set is classed as cell-based, human. Here is the method:
as §5

In the case of `Cc1sc2c(c1C)C(c1ccc(Cl)cc1)=N[C@@H](CC(=O)OC(C)(C)C)c1nnc(C)n1-2` [JQ1], the lnc-HLX-2-7 expression entry in the data set with lnc-HLX-2-7 [1] (D425 Med cells, JQ1 100 or 300 nM, relative to DMSO-treated cells) is “downregulated”; in the data set with lnc-HLX-2-7 [1] (MED211 cells, JQ1 100 or 300 nM, relative to DMSO-treated cells) it was “downregulated”. The “lnc-HLX2-7 expression (summary statement)” value with lnc-HLX-2-7 [1] (no cell line named at the place) is reported as “reduced”. The MYC expression result in the data set on MYC (D425 Med cells) and in the data set on MYC (MED211 cells) was “downregulated” in each case. Moreover, the “cell growth (viable cell numbers)” value was “cell growth inhibition” in the data set on D425 Med cells [2] (D425 Med cells treated with JQ1, relative to DMSO (FIG. 11B), suppressed by lnc-HLX-2-7 overexpression) and “cell growth inhibition” with MED211 cells [3] (MED211 cells treated with JQ1, relative to DMSO (FIG. 11B), suppressed by lnc-HLX-2-7 overexpression). Besides, in the data set on lnc-HLX-2-7 [4], the “lnc-HLX2-7 expression in vivo” value is “downregulation”. The cancer cell proliferation result in data set [5] is on record as “effectively suppresses”.

On to “ASO-lnc-HLX-2-7: LNA GapmeR antisense oligonucleotide with phosphorothioate linkages targeting lnc-HLX-2-7: +T*+G*+A*G*A*G*A*T*T*A*A*T*C*T*A*G*A*T*+T*+G*+C (antisense TGAGAGATTAATCTAGATTGC; sugars from the 5' end l3 d15 l3, all phosphorothioate, methylation of C not given here)”, for which the lnc-HLX-2-7 expression result is given as “significantly decreased” with lnc-HLX-2-7 [1] (D425 Med cells, ASO 50 nM, compared to control ASO-luc, p<0.01) and “significantly decreased” in the data set on lnc-HLX-2-7 [1] (MED211 cells, ASO 50 nM, compared to control ASO-luc, p<0.01). In addition, the HLX expression entry in the data set with HLX (D425 Med cells) and with HLX (MED211 cells) was “significantly reduced” each time. Also, the “MB cell growth (viable cell numbers)” value is recorded as “significantly suppressed” in the data set with D425 Med cells [2] (D425 Med cells, ASO 50 nM, 72 hours after transfection, p<0.01) and “significantly suppressed” in the data set on MED211 cells [3] (MED211 cells, ASO 50 nM, 72 hours after transfection, p<0.01). Also, the “apoptosis (apoptotic cell numbers)” value with D425 Med cells [6] and in the data set with MED211 cells [7] was “induced apoptosis” throughout.
